Results from PMC7806714, “Statins for the prevention of proliferative vitreoretinopathy: cellular responses in cultured cells and clinical statin concentrations in the vitreous” (Scientific Reports, 2021).

Experiments:
MTT cell viability assay = format: cell-based, human; details: human, ARPE-19 cells; dissolved in DMSO; read-out: Cell viability (MTT) compared to DMSO control
Description: Cell viability was assessed by determining the amount of LDH enzyme from culture media using a commercial kit (Promega Corporation, USA) according to the manufacturer’s protocol. This assay provides information about the integrity of the plasma membranes of the cells (high LDH levels meaning cell damage). In addition, the cell viability was examined with MTT assay, as described previously. In viable cells, the mitochondrial succinate dehydrogenase enzyme can metabolize the MTT dye into formazan that absorbs light at the 550 nm wavelength.

IL-8 = assay: ELISA of LPS-induced IL-8 release from ARPE-19 cells; details: 5 µM, 24 h prior to LPS

What does the source list for `CC(C)c1nc(N(C)S(C)(=O)=O)nc(-c2ccc(F)cc2)c1/C=C/[C@@H](O)C[C@@H](O)CC(=O)O` [Rosuvastatin]?
viability (MTT cell viability assay): 88%; LPS-induced release of IL-8 (IL-8): reduced
